Assay results: PubChem BioAssay AID1996
≈ marks a conversion by molar mass, not a printed value.

details: buffer; pH 7.4; 200.0 µM

First: COc1cccc2c(=O)n(CC(=O)NCCc3ccccc3)ccc12
Second: O=C(CCC(=O)NCc1ccccc1)NCc1ccccc1
The solubility kinetic of the first is 7.9-fold lower: 1.6 µg/mL (≈ 4.76 µM) for the first, 12.7 µg/mL (≈ 42.9 µM) for the second.

Compared with `O=C(COC(=O)c1ccc[n+]([O-])c1)Nc1cc([N+](=O)[O-])ccc1Cl`, `O=C(NC(=S)NC1CCSC1=O)c1cccc([N+](=O)[O-])c1` (centres undefined) is lower in solubility kinetic: > 52.8 µg/mL for the first, 43.2 µg/mL (≈ 133 µM) for the second.

`COc1ccccc1C(=O)OCC(=O)Nc1cccc(S(=O)(=O)NC2=NCCCCC2)c1` and `COc1ccccc1C(=O)NCCC(=O)NC1CCCCCC1` cannot be ordered by solubility kinetic: > 68.9 µg/mL for the first, > 47.8 µg/mL for the second.

First: COc1cc(C(=O)Nc2ccn(C)n2)ccc1OC(F)F
Second: O=C(CNC(=O)c1cccc(OC(F)F)c1)Nc1ccc(Cl)cc1
The solubility kinetic of the first is higher: > 44.6 µg/mL for the first, 3.4 µg/mL (≈ 9.58 µM) for the second.

`O=C(NCC1CCCO1)c1cc2ccccc2cc1O` (centres undefined) and `O=C(NC1CC2CCC(C1)N2Cc1ccccc1)c1cccc(F)c1` (centres undefined) cannot be ordered by solubility kinetic: > 40.7 µg/mL for the first, > 50.8 µg/mL for the second.

First: CC(C)CC(=O)Nc1ccc2c(c1)nc(CCN1CCCCC1)n2C
Second: S=C(c1ccc(-c2cccc(Cl)c2)o1)N1CCCCC1
The solubility kinetic of the first is higher: > 51.4 µg/mL for the first, 6.1 µg/mL (≈ 19.9 µM) for the second.

`CC(C)(C)NCC(O)COc1cccc2c1C[C@H](O)[C@H](O)C2` (some centres undefined) and `CCOc1cccc(C(=O)N/N=C/c2ccoc2)c1` cannot be ordered by solubility kinetic: > 46.4 µg/mL for the first, > 38.7 µg/mL for the second.

First: COc1cccc(C2CCCN2Cc2nc(-c3cnccn3)no2)c1 (centres undefined)
Second: COc1ccccc1N1CCN(c2ccc([N+](=O)[O-])cn2)CC1
The solubility kinetic of the first is 2.8-fold higher: 44.9 µg/mL (≈ 133 µM) for the first, 16.2 µg/mL (≈ 51.5 µM) for the second.

Compared with `Cn1c(=S)[nH]c2c(c1=O)C(C)(C)Cc1ccccc1-2`, `Cc1c(Cl)cccc1-n1cnc(=O)c2ccccc21` is higher in solubility kinetic: 3 µg/mL (≈ 11 µM) for the first, > 40.6 µg/mL for the second.

Compared with `CCc1noc(C)c1C(=O)OC(C)C(=O)Nc1ccc2c(c1)OCO2` (centres undefined), `CCCC(=O)Nc1ccc(C(=O)COC(=O)c2cc(C)oc2C)cc1` is 2.1-fold lower in solubility kinetic: 14.4 µg/mL (≈ 41.6 µM) for the first, 6.7 µg/mL (≈ 19.5 µM) for the second.

`Nc1c(C(=O)N2CCOCC2)oc2ccccc12` and `CCSC1=NCCN1C(=O)c1c(-c2ccccc2Cl)noc1C` cannot be ordered by solubility kinetic: > 36.9 µg/mL for the first, > 52.5 µg/mL for the second.

First: COc1ccc(OC)c(/C=C/C(=O)NCCc2nc3ccccc3[nH]2)c1
Second: CC(=O)Nc1nc2ccccc2[nH]1
The solubility kinetic of the first is 3.1-fold higher: 46.4 µg/mL (≈ 132 µM) for the first, 15.1 µg/mL (≈ 86.2 µM) for the second.

Compared with `O=C1OC(Nc2nc(-c3ccc(F)cc3)cs2)c2ccccc21` (centres undefined), `Cc1ccc(-c2nc(=O)[nH]c3ccccc23)cc1` is 14-fold higher in solubility kinetic: 1.9 µg/mL (≈ 5.82 µM) for the first, 25.8 µg/mL (≈ 109 µM) for the second.

Compared with `c1ccc(CCCN2CCN(c3ccccn3)CC2)cc1`, `O=[N+]([O-])c1ccc(N2CCN(c3ccccc3O)CC2)cc1` is 54-fold lower in solubility kinetic: 26.8 µg/mL (≈ 95.2 µM) for the first, 0.5 µg/mL (≈ 1.67 µM) for the second.

`CCOc1ccc(S(=O)(=O)N2CCNC(=O)C2)cc1` and `CCN(CC(=O)N1CCCC1)S(=O)(=O)c1ccccc1` cannot be ordered by solubility kinetic: > 42.6 µg/mL for the first, > 44.5 µg/mL for the second.

`COc1ccccc1OCCNC(=O)CN1C(=O)NC2(CCCCC2)C1=O` and `COc1ccc(CCN2C(=S)N(c3ccccc3)C(=O)C2CC(=O)O)cc1OC` (centres undefined) cannot be ordered by solubility kinetic: > 56.3 µg/mL for the first, > 62.2 µg/mL for the second.

Going from `CCc1sc(C(=O)NCc2ccco2)cc1Br` to `COC(=O)Cc1cc(=O)[nH]c(/N=C(\N)Nc2cccc(C)c2)n1`, the solubility kinetic falls from 25.9 µg/mL (≈ 82.4 µM) to 10.7 µg/mL (≈ 33.9 µM) (2.4-fold).

Going from `CCOc1cc(/C=N/OC(C)=O)ccc1OCc1ccccc1` to `N/C(=N\OC(=O)CCN1C(=O)c2ccccc2C1=O)c1ccccn1`, the solubility kinetic rises from 27.2 µg/mL (≈ 86.8 µM) to 49.6 µg/mL (≈ 147 µM) (1.8-fold).

`COC(=O)c1ccc(NC(=O)CNc2ccccc2)cc1` and `NC(=O)CCC(NC(=S)Nc1ccccc1)C(=O)O` (centres undefined) are within 1.5-fold of each other in solubility kinetic: 28.3 µg/mL (≈ 99.5 µM) for the first, 39.3 µg/mL (≈ 140 µM) for the second.

First: Cc1ccc(S(=O)(=O)NCc2c(-c3ccccc3)noc2C)cc1
Second: Cc1ccc(S(=O)(=O)/N=C2/NC(=O)/C(=C\c3ccccc3)S2)cc1
The solubility kinetic of the first is lower: 40.9 µg/mL (≈ 119 µM) for the first, > 53.8 µg/mL for the second.

First: Cc1ccccc1S(=O)(=O)Nc1ncnc2ccccc12
Second: O=C(CN1CCc2ccccc2C1)Nc1ccccc1F
The solubility kinetic of the first is higher: > 44.9 µg/mL for the first, 39.4 µg/mL (≈ 139 µM) for the second.

Compared with `CCc1nc2sc(C(=O)O)c(N)c2c2c1CCCC2`, `Cc1cc(NC(=O)COC(=O)CC2CCCC2)c([N+](=O)[O-])cc1C` is lower in solubility kinetic: > 41.5 µg/mL for the first, 3 µg/mL (≈ 8.97 µM) for the second.

`N#Cc1ccccc1S(=O)(=O)N1CCN(C(=O)C2CCCC2)CC1` and `Cc1ccccc1NC(=O)C1CCN(C(=O)NC2CCCCC2)CC1` cannot be ordered by solubility kinetic: > 52.1 µg/mL for the first, > 51.5 µg/mL for the second.

Compared with `CCOC(=O)c1ccc(Oc2cc(C)nc(Cl)n2)cc1`, `O=C(CN1C(=O)CCC1=O)Nc1nc(-c2ccc3ccccc3c2)cs1` is lower in solubility kinetic: > 43.9 µg/mL for the first, 1.8 µg/mL (≈ 4.93 µM) for the second.

`S=C(Nc1ccccc1)N1CCCCCCC1` and `O=C1C[C@H](NC(=O)OCc2ccccc2)CO1` cannot be ordered by solubility kinetic: > 37.3 µg/mL for the first, > 35.3 µg/mL for the second.

Compared with `CC(O)CN1CC(O)=C(c2nc3ccccc3s2)C1=N` (centres undefined), `O=C(O)Cn1c(O)c(C2=c3ccccc3=NC2=O)sc1=O` is 2.2-fold higher in solubility kinetic: 17.8 µg/mL (≈ 61.5 µM) for the first, 39.4 µg/mL (≈ 129 µM) for the second.

`CCCc1cc(=O)[nH]c(SCC(=O)Nc2cc(C)on2)n1` and `CC(C)C(NC(=O)C1CC(=O)N(Cc2ccccc2)C1)c1nc2ccccc2[nH]1` (centres undefined) cannot be ordered by solubility kinetic: > 46.3 µg/mL for the first, > 58.6 µg/mL for the second.

Compared with `CCOC(=O)c1sc(NC(=O)OC)c(C(=O)OC)c1C`, `COc1ccc(Nc2ccc(N3C(=O)CCC3=O)cc2[N+](=O)[O-])cn1` is higher in solubility kinetic: < 0.6 µg/mL for the first, 3.1 µg/mL (≈ 9.06 µM) for the second.

`CCCCCC1CCC(C(=O)NCCN2CCOCC2)CC1` (centres undefined) and `Cn1cnc([N+](=O)[O-])c1SCCO` cannot be ordered by solubility kinetic: 35.6 µg/mL (≈ 115 µM) for the first, > 30.5 µg/mL for the second.

In the case of `OC(CNCc1ccccc1)(c1ccccc1)c1ccccc1`, the solubility kinetic is reported as > 45.5 µg/mL.
